The text below walks through data of patent US8575201B2 (Boehringer Ingelheim International GmbH, priority 2010, dated 2013).

Assay [1] relates to biomarkers for myocardial infarction risk. The conditions noted are these: clinical trial; cited from earlier work.
In assay [2] the target is recombinant human FLAP protein (Homo sapiens (Human), UniProt P20292). Nature of the assay: FLAP binding assay (Scintillation Proximity Assay, displacement of [125I]L-691,831). The note with it: read-out: FLAP SPA IC50. In short, it runs like this:
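Scintillation proximity displacement of an iodinated (125I) FLAP inhibitor by test compounds, using 100,000×g membrane fraction from lysed cells. Final beads 200 μg/well and protein 5 μg/well; plates shaken 2 h before reading.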
Background: Scintillation proximity formats need no separation of bound from free tracer.

Assay [3] has as its system synthesis of LTB4 in human whole blood. Briefly: Human whole blood LTB4 production inhibition assay. The conditions noted are these: calcimycin stimulated, read-out: hWB LTB4 IC50. The class given is cell-based. An outline of the steps: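 Steps: compound plus heparinized human whole blood, 15 min at 37° C; add calcimycin to 20 μM final; incubate another 30 min at 37° C; centrifuge at low speed and collect plasma; measure LTB4 with a homogeneous time-resolved fluorescence immunoassay.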

The next assay relates to proteinuria. The note with it: clinical trial, human glomerulonephritis; cited from earlier work.
The subject of assay [4] is atherosclerotic plaque. The conditions noted are these: oral dosing, high-fat diet from 2 to 6 months of age; cited from earlier work.
The subject of assay [5] is atherosclerotic plaque. The conditions noted are these: infusion, treated for four weeks; cited from earlier work.

Sequence of recombinant human FLAP protein (P20292 whole entry): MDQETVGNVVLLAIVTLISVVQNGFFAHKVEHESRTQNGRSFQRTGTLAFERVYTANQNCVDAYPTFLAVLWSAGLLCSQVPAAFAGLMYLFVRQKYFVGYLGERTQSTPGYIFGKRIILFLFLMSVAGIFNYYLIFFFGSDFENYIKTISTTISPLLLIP

Take `O=C(O)[C@@H](c1ccc(OCc2ccc3ccccc3n2)cc1)C1CCCC1` [DG-031]: the “effect on biomarkers for myocardial infarction risk” value in assay [1] is recorded as “dose-dependent suppression of several biomarkers”.

For orientation: IC50 means the concentration needed to halve the response being measured. Take `Nc1ccc(-c2ccc(C3(c4noc(-c5cnn(C6COC6)c5)n4)CCC3)cn2)cn1` [Example 152, 5-{1-[5-(1-oxetan-3-yl-1H-pyrazol-4-yl)-[1,2,4]oxadiazol-3-yl]-cyclobutyl}-[2,3′]bipyridinyl-6′-ylamine]: the IC50 in assay [2] worked out at 13 nM; in assay [3], 100 nM.

With `CC(C)(O)Cn1cc(-c2nc(C3(c4ccc(-c5ccc(N)nc5)nc4)CCC3)no2)cn1` [Example 153, 1-(4-{3-[1-(6′-amino-[2,3′]bipyridinyl-5-yl)-cyclobutyl]-[1,2,4]oxadiazol-5-yl}-pyrazol-1-yl)-2-methyl-propan-2-ol], the results for the concentration for half-maximal inhibition (IC50) in assay [2] and in assay [3] were 34 nM and 190 nM, respectively.

`Nc1ncc(-c2ccc(C3(c4noc(N5CCC(O)CC5)n4)CCC3)cn2)cn1` [Example 154, 1-(3-{1-[6-(2-Amino-pyrimidin-5-yl)-pyridin-3-yl]-cyclobutyl}-[1,2,4]oxadiazol-5-yl)-piperidin-4-ol]: the IC50 in assay [2] came to 170 nM; in assay [3], 590 nM.

Consider `Nc1ncc(-c2ccc(C3(c4noc(-c5cnn(CC(=O)NC6CC6)c5)n4)CCC3)cn2)cn1` [Example 155, 2-[4-(3-{1-[6-(2-Amino-pyrimidin-5-yl)-pyridin-3-yl]-cyclobutyl}-[1,2,4]oxadiazol-5-yl)-pyrazol-1-yl]-N-cyclopropyl-acetamide], for which the IC50 came out at 63 nM in assay [2] and 550 nM in assay [3].

With `Nc1ncc(-c2ccc(C3(c4noc(-c5cnn(CC(=O)NCC6CCCO6)c5)n4)CCC3)cn2)cn1` (stereo not drawn) [Example 156, 2-[4-(3-{1-[6-(2-amino-pyrimidin-5-yl)-pyridin-3-yl]-cyclobutyl}-[1,2,4]oxadiazol-5-yl)-pyrazol-1-yl]-N-(tetrahydro-furan-2-ylmethyl)-acetamide], the figures for the IC50 in assay [2] and in assay [3] were 97 nM and 620 nM, respectively.

For the compound `CC(C)NC(=O)Cn1cc(-c2nc(C3(c4ccc(-c5cnc(N)nc5)nc4)CCC3)no2)cn1` [Example 157, 2-[4-(3-{1-[6-(2-amino-pyrimidin-5-yl)-pyridin-3-yl]-cyclobutyl}-[1,2,4]oxadiazol-5-yl)-pyrazol-1-yl]-N-isopropyl-acetamide], the IC50 in assay [2] was determined as 79 nM; in assay [3] it was 560 nM.

For `CN(CC1CCCO1)C(=O)Cn1cc(-c2nc(C3(c4ccc(-c5cnc(N)nc5)nc4)CCC3)no2)cn1` (stereo not drawn) [Example 159, 2-[4-(3-{1-[6-(2-amino-pyrimidin-5-yl)-pyridin-3-yl]-cyclobutyl}-[1,2,4]oxadiazol-5-yl)-pyrazol-1-yl]-N-methyl-N-(tetrahydro-furan-2-ylmethyl)-acetamide], the values for the IC50 in assay [2] and in assay [3] were 83 nM and 510 nM, respectively.

For `CN(C(=O)Cn1cc(-c2nc(C3(c4ccc(-c5cnc(N)nc5)nc4)CCC3)no2)cn1)C1CC1` [Example 160, 2-[4-(3-{1-[6-(2-amino-pyrimidin-5-yl)-pyridin-3-yl]-cyclobutyl}-[1,2,4]oxadiazol-5-yl)-pyrazol-1-yl]-N-cyclopropyl-N-methyl-acetamide], the IC50 was found to be 95 nM in assay [2] and 540 nM in assay [3].

Turning to `COC1CCN(C(=O)Cn2cc(-c3nc(C4(c5ccc(-c6cnc(N)nc6)nc5)CCC4)no3)cn2)C1` (stereo not drawn) [Example 161, 2-[4-(3-{1-[6-(2-amino-pyrimidin-5-yl)-pyridin-3-yl]-cyclobutyl}-[1,2,4]oxadiazol-5-yl)-pyrazol-1-yl]-1-(3-methoxy-pyrrolidin-1-yl)-ethanone], the IC50 worked out at 250 nM in assay [2] and 1100 nM in assay [3].

As to `CCN(C)C(=O)Cn1cc(-c2nc(C3(c4ccc(-c5cnc(N)nc5)nc4)CCC3)no2)cn1` [Example 162, 2-[4-(3-{1-[6-(2-amino-pyrimidin-5-yl)-pyridin-3-yl]-cyclobutyl}-[1,2,4]oxadiazol-5-yl)-pyrazol-1-yl]-N-ethyl-N-methyl-acetamide], the figures for the IC50 in assay [2] and in assay [3] were 130 nM and 490 nM, respectively.

In the case of `CN(C)C(=O)Cn1cc(-c2nc(C3(c4ccc(-c5ccc(N)nc5)nc4)CCC3)no2)cn1` [Example 163, 2-(4-{3-[1-(6′-amino-[2,3′]bipyridinyl-5-yl)-cyclobutyl]-[1,2,4]oxadiazol-5-yl}-pyrazol-1-yl)-N,N-dimethyl-acetamide], the IC50 in assay [2] was found to be 110 nM; in assay [3], 300 nM.

As to `CN(C)C(=O)Cn1cc(-c2nc(C3(c4ccc(-c5cnc(N)cn5)nc4)CCC3)no2)cn1` [Example 164, 2-[4-(3-{1-[6-(5-amino-pyrazin-2-yl)-pyridin-3-yl]-cyclobutyl}-[1,2,4]oxadiazol-5-yl)-pyrazol-1-yl]-N,N-dimethyl-acetamide], the figures for the IC50 in assay [2] and in assay [3] were 43 nM and 170 nM, respectively.

In the case of `CNc1ncc(-c2ccc(C3(c4noc(-c5cnn(CC(C)(C)O)c5)n4)CCC3)cn2)cn1` [Example 165, 2-Methyl-1-[4-(3-{1-[6-(2-methylamino-pyrimidin-5-yl)-pyridin-3-yl]-cyclobutyl}-[1,2,4]oxadiazol-5-yl)-pyrazol-1-yl]-propan-2-ol], the IC50 in assay [2] was 73 nM; in assay [3], 280 nM.

For the compound `N#Cc1cc(-c2ccc(C3(c4noc(-c5cnn(C6COC6)c5)n4)CCC3)cn2)cnc1N` [Example 167, 6′-Amino-5-{1-[5-(1-oxetan-3-yl-1H-pyrazol-4-yl)-[1,2,4]oxadiazol-3-yl]-cyclobutyl}-[2,3′]bipyridinyl-5′-carbonitrile], the half-maximal inhibitory concentration (IC50) in assay [2] amounted to 140 nM; in assay [3] it was 680 nM.

With `CNc1cnc(-c2ccc(C3(c4noc(-c5cnn(C)c5)n4)CCC3)cn2)cn1` [Example 168, Methyl-[5-(5-{1-[5-(1-methyl-1H-pyrazol-4-yl)-[1,2,4]oxadiazol-3-yl]-cyclobutyl}-pyridin-2-yl)-pyrazin-2-yl]-amine], the figures for the IC50 in assay [2] and in assay [3] were 33 nM and 99 nM, respectively.

Turning to `COCCn1cc(-c2nc(C3(c4ccc(-c5cnc(N)cn5)nc4)CCC3)no2)cn1` [Example 171, 5-[5-(1-{5-[1-(2-Methoxy-ethyl)-1H-pyrazol-4-yl]-[1,2,4]oxadiazol-3-yl}-cyclobutyl)-pyridin-2-yl]-pyrazin-2-ylamine], the IC50 in assay [2] is 50 nM; in assay [3] it was 76 nM.

Consider `Cn1cc(-c2nc(C3(c4ccc(-c5cnc(N)cn5)nc4)CCC3)no2)cn1` [Example 174, 5-(5-{1-[5-(1-Methyl-1H-pyrazol-4-yl)-[1,2,4]oxadiazol-3-yl]-cyclobutyl}-pyridin-2-yl)-pyrazin-2-ylamine], for which the IC50 is 39 nM in assay [2] and 74 nM in assay [3].

In the case of `Cc1nc(N)ncc1-c1ccc(C2(c3noc(-c4cnn(CC(C)(C)O)c4)n3)CCC2)cn1` [Example 175, 1-[4-(3-{1-[6-(2-Amino-4-methyl-pyrimidin-5-yl)-pyridin-3-yl]-cyclobutyl}-[1,2,4]oxadiazol-5-yl)-pyrazol-1-yl]-2-methyl-propan-2-ol], the figures for the IC50 in assay [2] and in assay [3] were 830 nM and 620 nM, respectively.

On to `CNc1cnc(-c2ccc(C3(c4noc(-c5cnn(C6COC6)c5)n4)CCC3)cn2)cn1` [Example 176, Methyl-[5-(5-{1-[5-(1-oxetan-3-yl-1H-pyrazol-4-yl)-[1,2,4]oxadiazol-3-yl]-cyclobutyl}-pyridin-2-yl)-pyrazin-2-yl]-amine], for which the IC50 in assay [2] was 23 nM; in assay [3], 73 nM.

For `CNc1cnc(-c2ccc(C3(c4noc(-c5cnn(CC(C)(C)O)c5)n4)CCC3)cn2)cn1` [Example 177, 2-Methyl-1-[4-(3-{1-[6-(5-methylamino-pyrazin-2-yl)-pyridin-3-yl]-cyclobutyl}-[1,2,4]oxadiazol-5-yl)-pyrazol-1-yl]-propan-2-ol], the values for the IC50 in assay [2] and in assay [3] were 32 nM and 160 nM, respectively.

Turning to `CC(C)(C)Sc1c(CC(C)(C)C(=O)O)n(Cc2ccc(Cl)cc2)c2ccc(OCc3ccc4ccccc4n3)cc12` [MK-591], the effect on proteinuria result with proteinuria is “reduce proteinuria”.

As for `CC(C)c1ccc2c(c1)c(SC(C)(C)C)c(CC(C)(C)C(=O)O)n2Cc1ccc(Cl)cc1` [MK-886], in the assay on atherosclerotic plaque [4], the “decrease in plaque coverage in the aorta” value is recorded as 56% and the “decrease in plaque coverage in the aortic root” value was 43%. The “decrease in plaque area in the aortic root” value with atherosclerotic plaque [5] is listed as ~40%.
